Values joined by “and” are separate entries in the source; they are usually repeats but may differ in a detail not shown here. Equal entries are not always repeated.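 Dose response: 5 concentrations. Exposure: 48 h. Format: 96-well plates. Endpoint: linear interpolation; highest concentration if not reached. GI50 = concentration required for 50% inhibition of growth. TGI is the concentration that stops growth completely.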
Key:
Assay in all cases: inhibition of tumour cell growth, NCI panel, 48 h
[1] = test system: UACC-257 melanoma
[2] = test system: OVCAR-8 ovarian
[3] = test system: SF-539 CNS
[4] = test system: SW-620 colon
[5] = test system: ACHN renal
[6] = test system: OVCAR-5 ovarian
[7] = test system: CCRF-CEM leukemia
[8] = test system: PC-3 prostate
[9] = test system: MCF7 breast
[10] = test system: M14 melanoma

Structure (SMILES)	TGI [1]	TGI [2]	TGI [3]	TGI [4]	TGI [5]	TGI [6]	GI50 [1]	GI50 [2]	GI50 [3]	GI50 [7]	TGI [7]	GI50 [8]	TGI [8]	GI50 [4]	GI50 [9]	TGI [9]	GI50 [5]	GI50 [6]	GI50 [10]	TGI [10]
NCCn1ccc(NC(c2ccccc2)(c2ccccc2)c2ccccc2)nc1=O	36.2 µM	> 100 µM	31.3 µM	35.9 µM	> 100 µM	> 100 µM														
Clc1nc(Cl)c2ncn(C/C=C/Cn3cnc4c(Cl)nc(Cl)nc43)c2n1	27.8 µM	21 µM	41 µM	22.5 µM	32.2 µM	35.1 µM	11 µM	6.11 µM	21.3 µM	10.7 µM	25.3 µM	17.5 µM	33.2 µM	8.72 µM	6.69 µM	21.6 µM	18.2 µM	19.5 µM	21.2 µM	39.7 µM
COc1ccc2nc3ccccc3c(NCCCCCN(CCCl)CCCl)c2c1		2.2 µM		1.19 µM	0.748 µM	1.35 µM					0.118 µM									0.184 µM
COc1cc[c]([Sb]([Br])([CH]=C(C)C)([CH]=C(C)C)[CH]=C(C)C)cc1	> 100 µM	> 100 µM		> 100 µM	> 100 µM		3.45 µM	8.15 µM		5.65 µM	> 100 µM			6.46 µM			21.7 µM		6.29 µM	42.5 µM
CC1(C(=O)NCCN(CCNC(=O)C2(C)CC3(C)CC(C)(C2)C(=O)NC3=O)CCNC(=O)C2(C)CC3(C)CC(C)(C2)C(=O)NC3=O)CC2(C)CC(C)(C1)C(=O)NC2=O (stereo not drawn)	> 100 µM	> 100 µM	> 100 µM	> 100 µM	> 100 µM						> 100 µM									> 100 µM
O=C(N[C@@H]1C=CCC[C@@H]1c1ccccc1)OCc1ccccc1	35.2 µM	42.6 µM	33.5 µM	50.7 µM	64.7 µM	54.4 µM					43.9 µM									34.5 µM
CCN1CCC2(CC1)NC(=O)c1c(c3ccc(Cl)c(Cl)c3n1C)C2C#N (stereo not drawn)	3.96 µM		4.52 µM	3.77 µM	12.8 µM	5.79 µM	1.84 µM		1.89 µM	3 µM	13.1 µM	> 100 µM	> 100 µM	1.94 µM	1.56 µM	3.28 µM	2.92 µM	1.98 µM	1.62 µM	3.1 µM
O=[N+]([O-])c1cccc(/C=C/c2ccccn2)c1	> 100 µM	> 100 µM	> 100 µM	> 100 µM	> 100 µM	> 100 µM	> 100 µM	45 µM	26.6 µM	7.91 µM	43 µM	29.1 µM	> 100 µM	5.95 µM	0.569 µM	> 100 µM	5.81 µM	49.7 µM	52.1 µM	> 100 µM
C/C(=C1/N=C(c2ccccc2)OC1=O)c1ccc(C)cc1	> 100 µM	> 100 µM	> 100 µM	> 100 µM	> 100 µM	> 100 µM					> 100 µM		> 100 µM			> 100 µM				> 100 µM
CCOC(=O)/C(=C/c1ccccc1)C(=O)c1ccccc1	10.1 µM	6.79 µM	7.8 µM	7.6 µM	6.99 µM	16.9 µM	2.52 µM	2.4 µM	2.63 µM	2.61 µM	9.44 µM	4.6 µM	22.7 µM	2.77 µM	3.13 µM	15.9 µM	2.62 µM	4.05 µM	3.77 µM	15.5 µM
NC(=S)N/N=C1\C(=O)N(CCc2ccccc2)C(=O)C1C(=O)NCCc1ccccc1 (stereo not drawn)	> 100 µM	> 100 µM	> 100 µM	> 100 µM	> 100 µM	> 100 µM														> 100 µM
COC1=C(C)C(=O)C2=C(C1=O)C(CO)N1C(C#N)C3CC4C(C1C2N1CCOC41)N3C (stereo not drawn)		0.257 µM and 0.404 µM and 0.0957 µM		1.41 µM and 1.16 µM and 10.6 µM	3.54 µM and 10.6 µM	1.09 µM and 0.587 µM and 1.98 µM	0.00238 µM and 0.0198 µM					0.00946 µM and 0.0889 µM and 0.0764 µM	0.663 µM and 0.387 µM	0.000811 µM			0.00277 µM			
O=C(c1ccco1)c1ccccc1C(=O)c1ccco1	> 100 µM	> 100 µM	> 100 µM	> 100 µM	> 100 µM	> 100 µM					> 100 µM									> 100 µM
Fc1c[c-]c(-c2ccccn2)c(F)c1.[CH3-].[Pt+2].c1ccc([PH+](c2ccccc2)c2ccccn2)cc1	5.07 µM	> 100 µM	3.07 µM	4.55 µM	2.49 µM	3.63 µM	1.67 µM	2.25 µM	1.58 µM	1.38 µM	> 100 µM	1.41 µM	3.89 µM	1.92 µM	1.22 µM	3.23 µM	1.2 µM	1.72 µM		
Cc1ccc(/C=N/NS(=O)(=O)c2ccccc2)cc1	> 100 µM	> 100 µM	> 100 µM	> 100 µM	> 100 µM	> 100 µM					> 100 µM									> 100 µM
COc1ccc2c(c1)CC[C@@H]1[C@@H]2CC[C@]2(C)c3[nH]ncc3C[C@@H]12	29.4 µM	> 50 µM	42 µM	> 50 µM	> 50 µM	> 50 µM	11.3 µM	15.6 µM	14.8 µM			18.2 µM	> 50 µM	16.1 µM	13.4 µM	35.7 µM	19 µM	20.2 µM	16.4 µM	> 50 µM
COc1cc(-c2nc(-c3nnc(-c4ccc(F)c(Cl)c4)o3)c3ccccn23)cc(OC)c1OC		4.44 µM		> 100 µM		> 100 µM		1.69 µM		> 100 µM	> 100 µM			3.05 µM				4.57 µM	3.27 µM	> 100 µM
Cc1cccc(Cl)c1NC(N)=S	> 100 µM	79.8 µM	> 100 µM	35.6 µM	82.5 µM	> 100 µM					> 100 µM									> 100 µM

From PubChem BioAssay (NCI)
